The values that follow come from patent publication US10005767B2, “Compositions and methods for inhibition of the JAK pathway” (Rigel Pharmaceuticals, Inc., priority 2009, dated 2018).

In one test the test system is human primary T-cells, IL-2 stimulated proliferation (JAK-1 and JAK-3 dependent; reported as JAK3 activity). Briefly: Human primary T-cell proliferation stimulated by IL-2 (Example 3). It counts as cell-based. To be noted: Homo sapiens, T-cell, tested under conditions described in Example 3 (IL-2 stimulated human primary T-cell proliferation); read-out: ability to inhibit JAK3 activity, IC50 range (Table V). In a few lines: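 Peripheral-blood human T-cells pre-activated via TCR/CD28, IL-2-starved overnight, then cultured 72 h at 37 °C with compound in Yssel's medium containing IL-2 (80 U/mL in cell suspension). Proliferation read as viable-cell ATP by CellTiter-Glo luminescence; reduction versus control taken as JAK pathway inhibition.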
As usually defined, the IC50 is the concentration that inhibits the measured activity by half. Consider `COc1cncc(Nc2ncc(C)c(Nc3ccc4oc(=O)[nH]c4c3)n2)c1` [II-152, N2-(5-methoxypyridin-3-yl)-5-methyl-N4-(2-oxo-2,3-dihydro-1,3-benzoxazol-5-yl)-2,4-pyrimidinediamine], for which the IC50 is > 10000 nM.
With `Cc1cnc(Nc2ccc(C(F)(F)F)c(Cl)c2)nc1Nc1ccc2oc(=O)[nH]c2c1` [Compound I-167, 5-[2-(3-Chloro-4-trifluoromethyl-phenylamino)-5-methyl-pyrimidin-4-ylamino]-3H-benzooxazol-2-one], the IC50 is < 500 nM.
For `Cc1cnc(Nc2ccc(F)c(S(C)(=O)=O)c2)nc1Nc1cc(F)c2oc(=O)[nH]c2c1` [Compound I-250, 7-fluoro-5-(2-(4-fluoro-3-(methylsulfonyl)phenylamino)-5-methylpyrimidin-4-ylamino)benzo[d]oxazol-2(3H)-one], the IC50 is < 500 nM.
On the same count and under the same terms, to `Cc1cnc(Nc2ccc(Br)c(C(F)(F)F)c2)nc1Nc1ccc2oc(=O)[nH]c2c1` [Compound I-188, 5-[2-(4-Bromo-3-trifluoromethyl-phenylamino)-5-methyl-pyrimidin-4-ylamino]-3H-benzooxazol-2-one] belongs < 500 nM.
Same read-out and setting: the figure for `Cc1cnc(Nc2ccc(N3CCC[C@@H](N(C)C(=O)OC(C)(C)C)C3)nc2)nc1Nc1ccc2oc(=O)[nH]c2c1` [II-91, (R)-tert-butyl methyl(1-(5-(5-methyl-4-(2-oxo-2,3-dihydrobenzo[d]oxazol-5-ylamino)pyrimidin-2-ylamino)pyridin-2-yl)piperidin-3-yl)carbamate] is < 500 nM; for `Cc1cnc(Nc2ccc(N3CCN(C)CC3)nc2)nc1Nc1ccc2[nH]c(=O)oc2c1` [II-25, 6-(5-methyl-2-(6-(4-methylpiperazin-1-yl)pyridin-3-ylamino)pyrimidin-4-ylamino)benzo[d]oxazol-2(3H)-one] it is < 500 nM; for `CCCN1Cc2ccc(Nc3ncc(C)c(Nc4ccc5oc(=O)[nH]c5c4)n3)cc2C1` [III-6, N4-(benzo[d]oxazol-2(3H)-on-5-yl)-N2-(2-n-propylisoindolin-5-yl)-5-methylpyrimidine-2,4-diamine] it is < 500 nM.
With `O=c1[nH]c2cc(Nc3nc(Nc4cccc(S(=O)(=O)N5CCOCC5)c4)ncc3F)ccc2o1` [Compound I-31, N4-(benzo[d]oxazol-2(3H)-on-5-yl)-N2-(3-(morpholinosulfonyl)phenyl)-5-fluoropyrimidine-2,4-diamine], the IC50 was < 500 nM.
On the same count and under the same terms, to `COc1cc(CF)cc(Nc2ncc(C)c(Nc3ccc4oc(=O)[nH]c4c3)n2)c1` [Compound I-274, 5-(2-(3-(fluoromethyl)-5-methoxyphenylamino)-5-methylpyrimidin-4-ylamino)benzo[d]oxazol-2(3H)-one] belongs < 500 nM; to `Cc1cnc(Nc2cccc(C(C)N3CCCCC3)c2)nc1Nc1ccc2oc(=O)[nH]c2c1` (centres unmarked) [Compound I-215, 5-(5-methyl-2-(3-(1-(piperidin-1-yl)ethyl)phenylamino)pyrimidin-4-ylamino)benzo[d]oxazol-2(3H)-one], < 500 nM; to `COc1ccc(Nc2ncc(C)c(Nc3ccc4oc(=O)[nH]c4c3)n2)cc1C(=O)N1CCCC1` [Compound I-261, 5-(2-(4-methoxy-3-(pyrrolidine-1-carbonyl)phenylamino)-5-methylpyrimidin-4-ylamino)benzo[d]oxazol-2(3H)-one], < 500 nM.
The same measure, in the same setting: to `COc1ccc(Nc2ncc(C)c(Nc3ccc4oc(=O)[nH]c4c3)n2)cc1C` [Compound I-258, 5-(2-(4-methoxy-3-methylphenylamino)-5-methylpyrimidin-4-ylamino)benzo[d]oxazol-2(3H)-one] belongs < 500 nM.
In the case of `Cc1cnc(Nc2cnc(N3C[C@@H]4C[C@H]3CN4C)c(F)c2)nc1Nc1ccc2oc(=O)[nH]c2c1` [II-40, N4-(benzoxazolin-2-on-5-yl)-N2-[3-fluoro-2-((1S,4S)-5-methyl-2,5-diazabicyclo[2.2.1]heptan-2-yl)pyridin-5-yl]-5-methylpyrimidine-2,4-diamine], the IC50 is < 500 nM.
On to `Cc1cnc(Nc2cc(C(C)NC(C)C)cc(C(F)(F)F)c2)nc1Nc1ccc2oc(=O)[nH]c2c1` (centres unmarked) [Compound I-473, 5-(2-(3-(1-(isopropylamino)ethyl)-5-(trifluoromethyl)phenylamino)-5-methylpyrimidin-4-ylamino)benzo[d]oxazol-2(3H)-one], for which the IC50 was < 500 nM.
Still for that read-out and setting: the figure for `Cc1cnc(Nc2ccc3c(c2)C=CCN(C)C3=O)nc1Nc1ccc2oc(=O)[nH]c2c1` [IV-19, (Z)-5-(5-methyl-2-(2-methyl-1-oxo-2,3-dihydro-1H-benzo[c]azepin-7-ylamino)pyrimidin-4-ylamino)benzo[d]oxazol-2(3H)-one] is < 500 nM; for `COc1cc(Nc2ncc(C)c(Nc3cc(F)c4oc(=O)[nH]c4c3)n2)cc(C)c1OC` [Compound I-454, 5-(2-(3,4-dimethoxy-5-methylphenylamino)-5-methylpyrimidin-4-ylamino)-7-fluorobenzo[d]oxazol-2(3H)-one] it is < 500 nM.
Same read-out and setting: to `Cc1cnc(Nc2ccc3c(c2)OC(F)(F)O3)nc1Nc1ccc2oc(=O)[nH]c2c1` [IV-36, N2-(2,2-difluoro-2H-1,3-benzodioxol-5-yl)-5-methyl-N4-(2-oxo-2,3-dihydro-1,3-benzoxazol-5-yl)-2,4-pyrimidinediamine] belongs < 500 nM; to `Cc1cnc(Nc2ccc(Cl)c(OC(F)(F)F)c2)nc1Nc1ccc2oc(=O)[nH]c2c1` [Compound I-180, 5-[2-(4-Chloro-3-trifluoromethoxy-phenylamino)-5-methyl-pyrimidin-4-ylamino]-3H-benzooxazol-2-one], < 500 nM.
The same measure, in the same setting: the figure for `Cc1cnc(Nc2cccc(C)c2F)nc1Nc1ccc2oc(=O)[nH]c2c1` [Compound I-513, 5-(2-(2-fluoro-3-methylphenylamino)-5-methylpyrimidin-4-ylamino)benzo[d]oxazol-2(3H)-one] is < 500 nM.

Staying with this test, now noted: tested under conditions described in Example 3 (IL-2 stimulated human primary T-cell proliferation); read-out: ability to inhibit JAK3 activity, IC50 range (Table V).
As for `NS(=O)(=O)c1cccc(Nc2ncc(F)c(Nc3ccc4oc(=O)[nH]c4c3)n2)c1` [Compound I-18], the IC50 is < 500 nM.
Same read-out and setting: to `Cc1cnc(Nc2cc(F)c(F)c(F)c2)nc1Nc1ccc2oc(=O)[nH]c2c1` [Compound I-408, 5-methyl-N4-(2-oxo-2,3-dihydro-1,3-benzoxazol-5-yl)-N2-(3,4,5-trifluoro)phenyl-2,4-pyrimidinediamine] belongs < 500 nM.
Consider `Cc1ccc(Nc2ncc(C)c(Nc3ccc4oc(=O)[nH]c4c3)n2)cc1S(=O)(=O)NC(C)(C)C` [Compound I-113, N4-(benzoxazolin-2-on-5-yl)-N2-[4-methyl-3-N-(t-butyl)aminosulfonylphenyl]-5-methylpyrimidine-2,4-diamine], for which the IC50 was < 500 nM.
The same measure, in the same setting: to `O=c1[nH]c2cc(Nc3nc(Nc4ccc(N5CCOCC5)nc4)ncc3F)ccc2o1` [II-18, N4-(benzo[d]oxazol-2(3H)-on-5-yl)-N2-((2-morpholinyl)pyridin-5-yl)-5-fluoropyrimidine-2,4-diamine] belongs < 500 nM.
Consider `Cc1cnc(Nc2ccc(N3CCC(F)(F)CC3)c(C(F)(F)F)c2)nc1Nc1ccc2oc(=O)[nH]c2c1` [Compound I-276, N2-[4-(4,4-difluoropiperidinyl)-3-trifluoromethyl]phenyl-5-methyl-N4-(2-oxo-2,3-dihydro-1,3-benzoxazol-5-yl)-2,4-pyrimidinediamine], for which the IC50 was < 500 nM.
On the same count and under the same terms, the figure for `Cc1cnc(Nc2ccc3c(c2)OC2(CCCCC2)O3)nc1Nc1ccc2oc(=O)[nH]c2c1` [IV-39, N2-[spiro(2,1′-cyclohexan)-1,3-benzodioxol-5-yl]-5-methyl-N4-(2-oxo-2,3-dihydro-1,3-benzoxazol-5-yl)-2,4-pyrimidinediamine] is < 500 nM; for `Cn1c(=O)oc2ccc(Nc3nc(Nc4ccc(NS(C)(=O)=O)cc4)ncc3F)cc21` [Compound I-80, N2-((4-methylsulfonylamino)phenyl)-N4-(3-methyl-2-oxo-2,3-dihydrobenzo[d]oxazol-5-yl)-5-fluoropyrimidine-2,4-diamine] it is < 500 nM.
The same measure, in the same setting: the figure for `Cc1cnc(Nc2cc(C)c(C)c(C)c2)nc1Nc1cc(Cl)c2oc(=O)[nH]c2c1` [Compound I-522, N4-(7-chloro-2-oxo-2,3-dihydro-1,3-benzoxazol-5-yl)-5-methyl-N2-(3,4,5-trimethyl)phenyl-2,4-pyrimidinediamine] is < 500 nM; for `Cc1cnc(Nc2cccc(F)c2)nc1Nc1ccc2oc(=O)[nH]c2c1` [Compound I-368, N2-(3-fluoro)phenyl-5-methyl-N4-(2-oxo-2,3-dihydro-1,3-benzoxazol-5-yl)-2,4-pyrimidinediamine] it is < 500 nM.
On the same count and under the same terms, the figure for `Cc1cnc(Nc2ccc3c(c2)OCCO3)nc1Nc1ccc2oc(=O)[nH]c2c1` [IV-37, N2-(3,4-ethylenedioxy)phenyl-5-methyl-N4-(2-oxo-2,3-dihydro-1,3-benzoxazol-5-yl)-2,4-pyrimidinediamine] is < 500 nM.
`Cc1cnc(Nc2ccc(N(C)S(C)(=O)=O)cc2)nc1Nc1ccc2oc(=O)n(C)c2c1` [Compound I-94, N2-((4-methylsulfonyl-N-methylamino)phenyl)-N4-(3-methyl-2-oxo-2,3-dihydrobenzo[d]oxazol-5-yl)-5-methylpyrimidine-2,4-diamine]: the IC50 was < 500 nM.
For the compound `Cc1cnc(Nc2ccc(N3CCOCC3)c(C#N)c2)nc1Nc1ccc2oc(=O)[nH]c2c1` [Compound I-327, N2-(3-cyano-4-morpholino)phenyl-5-methyl-N4-(2-oxo-2,3-dihydro-1,3-benzoxazol-5-yl)-2,4-pyrimidinediamine], the IC50 was < 500 nM.
Consider `Cc1cnc(Nc2ccc(N3CCN(C)CC3)c(C(N)=O)c2)nc1Nc1ccc2oc(=O)[nH]c2c1` [Compound I-316, N2-[3-aminocarbonyl-4-(4-methylpiperazino)]phenyl-5-methyl-N4-(2-oxo-2,3-dihydro-1,3-benzoxazol-5-yl)-2,4-pyrimidinediamine], for which the IC50 is < 500 nM.
